Measurements reported in US20230265116A1, “DEGRADATION OF (EGFR) BY CONJUGATION OF EGFR INHIBITORS WITH E3 LIGASE LIGAND AND METHODS OF USE” (BEIGENE, LTD., priority 2020, published 2023).

How the values were obtained:
Type in all cases: cell-based
[1] = tested on: EGFR Del19/T790M/C797S (H1975-clone #28); test: EGFR degradation HTRF assay, H1975-clone #28 DTC cells; conditions: H1975 # 28 DTC cells; for DC50: EGFR degradation, IC50 (DC50) from curve fit, read-out: DC50(nM) H1975 # 28 DTC; for Dmax (%) H1975 # 28 DTC: maximum percentage of inhibition (degradation)
Method in brief: (§1)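 Lentiviral Del19/T790M/C797S (clone #28) or Del19/C797S (clone #23) EGFR expressed in H1975 with endogenous EGFR knocked out. Cells treated 16 h, 37 °C, 8 doses, 5-fold from 10 uM top, 0.2% DMSO; EGFR read by HTRF after lysis. Degradation % vs DMSO control; DC50, Dmax from four-parameter fit.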

[2] = tested on: EGFR Del19/C797S (H1975-clone #23); test: EGFR degradation HTRF assay, H1975-clone #23 DC cells; conditions: 16h treatment; for H1975 #23 DC Dmax (%): maximum percentage of degradation; for DC50: H1975 #23 DC, read-out: H1975 #23 DC DC50
Method in brief: as §1

[3] = biological target: T1, EGFR L858R/C797S (BaF3 LC cells) (Homo sapiens, UniProt P00533, C797S/L858R); test: EGFR degradation HTRF assay, BaF3 LC cells; conditions: BaF3 LC, 16h treatment; for DC50: read-out: BaF3 LC DC50; for Dmax: read-out: BaF3 LC Dmax (%)
T1 construct: expressed in transfected cells; host or cells: BaF3
T1 sequence (P00533 25-1210 C797S/L858R): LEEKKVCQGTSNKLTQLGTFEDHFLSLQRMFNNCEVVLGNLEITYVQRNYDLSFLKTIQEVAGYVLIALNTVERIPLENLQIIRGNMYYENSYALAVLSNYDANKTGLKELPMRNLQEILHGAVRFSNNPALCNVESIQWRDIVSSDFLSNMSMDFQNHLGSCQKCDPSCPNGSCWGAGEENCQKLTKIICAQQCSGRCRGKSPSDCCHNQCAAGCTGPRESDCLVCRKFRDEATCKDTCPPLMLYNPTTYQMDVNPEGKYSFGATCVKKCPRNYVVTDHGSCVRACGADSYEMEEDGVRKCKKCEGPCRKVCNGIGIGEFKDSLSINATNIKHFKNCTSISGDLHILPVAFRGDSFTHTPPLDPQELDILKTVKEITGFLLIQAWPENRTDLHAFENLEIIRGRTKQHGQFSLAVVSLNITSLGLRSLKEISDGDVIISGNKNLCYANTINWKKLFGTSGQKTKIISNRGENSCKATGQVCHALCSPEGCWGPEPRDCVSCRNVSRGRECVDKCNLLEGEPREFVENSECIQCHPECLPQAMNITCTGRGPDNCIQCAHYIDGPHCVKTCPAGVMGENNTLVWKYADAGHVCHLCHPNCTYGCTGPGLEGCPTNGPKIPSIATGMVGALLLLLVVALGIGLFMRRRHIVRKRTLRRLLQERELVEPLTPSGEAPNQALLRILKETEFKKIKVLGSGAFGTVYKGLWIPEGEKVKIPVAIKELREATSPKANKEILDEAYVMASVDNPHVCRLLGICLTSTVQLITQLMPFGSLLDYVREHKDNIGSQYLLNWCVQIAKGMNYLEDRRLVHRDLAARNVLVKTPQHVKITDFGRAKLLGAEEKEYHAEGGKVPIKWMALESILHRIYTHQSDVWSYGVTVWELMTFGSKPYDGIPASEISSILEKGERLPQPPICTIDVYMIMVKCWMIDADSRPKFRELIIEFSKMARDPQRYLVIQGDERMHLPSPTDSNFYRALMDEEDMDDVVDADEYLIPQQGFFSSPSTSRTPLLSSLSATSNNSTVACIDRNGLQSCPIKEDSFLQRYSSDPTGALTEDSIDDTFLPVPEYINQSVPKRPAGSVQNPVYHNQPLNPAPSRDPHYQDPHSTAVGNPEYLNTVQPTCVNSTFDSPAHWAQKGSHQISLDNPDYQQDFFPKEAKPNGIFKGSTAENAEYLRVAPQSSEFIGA

[4] = biological target: T2, EGFR L858R/T790M/C797S (BaF3-LTC cells) (Homo sapiens, UniProt P00533, C797S/L858R/T790M); test: EGFR degradation HTRF assay, BaF3-LTC cells; conditions: BaF3-LTC cells; for DC50: EGFR degradation, IC50 (DC50) from curve fit, read-out: DC50(nM) BaF3-LTC; for Dmax: read-out: Dmax (%) BaF3-LTC
T2 construct: expressed in transfected cells; host or cells: BaF3
T2 sequence (P00533 25-1210 T790M/C797S/L858R): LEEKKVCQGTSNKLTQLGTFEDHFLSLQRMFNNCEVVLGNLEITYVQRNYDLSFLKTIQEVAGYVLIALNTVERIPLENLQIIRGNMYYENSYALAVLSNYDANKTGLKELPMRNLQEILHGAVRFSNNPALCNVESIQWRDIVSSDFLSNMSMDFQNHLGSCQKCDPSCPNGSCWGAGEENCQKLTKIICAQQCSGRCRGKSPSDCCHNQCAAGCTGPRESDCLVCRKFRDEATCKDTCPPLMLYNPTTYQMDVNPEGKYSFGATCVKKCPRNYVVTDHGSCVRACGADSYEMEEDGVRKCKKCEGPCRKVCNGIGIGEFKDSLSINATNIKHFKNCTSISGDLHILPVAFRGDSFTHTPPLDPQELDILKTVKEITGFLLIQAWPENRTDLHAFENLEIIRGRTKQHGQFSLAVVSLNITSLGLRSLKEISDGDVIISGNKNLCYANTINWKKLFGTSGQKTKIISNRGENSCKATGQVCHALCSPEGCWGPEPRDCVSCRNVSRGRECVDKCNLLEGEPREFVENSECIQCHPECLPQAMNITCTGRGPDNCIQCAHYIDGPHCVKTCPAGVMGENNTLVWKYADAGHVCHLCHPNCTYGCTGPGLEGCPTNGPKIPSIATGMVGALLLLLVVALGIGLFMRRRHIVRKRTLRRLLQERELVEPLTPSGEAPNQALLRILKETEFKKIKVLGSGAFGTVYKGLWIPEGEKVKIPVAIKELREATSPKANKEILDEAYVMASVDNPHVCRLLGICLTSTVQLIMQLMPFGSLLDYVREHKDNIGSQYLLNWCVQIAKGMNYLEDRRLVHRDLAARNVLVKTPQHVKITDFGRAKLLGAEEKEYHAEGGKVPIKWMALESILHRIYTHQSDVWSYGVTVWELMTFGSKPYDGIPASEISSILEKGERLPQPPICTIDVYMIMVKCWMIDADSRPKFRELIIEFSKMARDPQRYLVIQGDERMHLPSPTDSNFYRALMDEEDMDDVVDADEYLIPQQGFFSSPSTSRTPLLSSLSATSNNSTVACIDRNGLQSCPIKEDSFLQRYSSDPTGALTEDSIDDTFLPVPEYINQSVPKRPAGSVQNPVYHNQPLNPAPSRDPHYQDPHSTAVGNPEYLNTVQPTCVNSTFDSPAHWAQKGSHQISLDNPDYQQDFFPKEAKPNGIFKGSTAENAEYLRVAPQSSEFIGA
Method in brief: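 EGFR remaining after a 16 h, 37 °C exposure (8 doses, 5-fold steps from 10 uM final, 0.2% DMSO) was quantified by HTRF antibodies in cell lysate. Percent inhibition relative to DMSO control was fitted by four-parameter logistic to give DC50; Dmax denotes maximal degradation.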

[5] = maximum percentage of degradation
[6] = maximum percentage of inhibition (degradation)

SMILES | DC50 [1] [nM] | Dmax (%) H1975 # 28 DTC [1] [%] | H1975 #23 DC Dmax (%) [2] [%] | DC50 [2] [nM] | BaF3 LC Dmax (%) [3, 5] [%] | DC50 [3] [nM] | DC50 [4] [nM] | Dmax (%) BaF3-LTC [4, 6] [%] | Dmax [3, 5] [%] | Dmax [4, 6] [%]
CCOc1cc(N2CCC(N3CCN(CCc4cccc5c4oc(=O)n5C4CCC(=O)NC4=O)CC3)CC2)c(CC)cc1Nc1ncc(Br)c(Nc2ccc3c(=O)n(CC)ncc3c2P(C)(C)=O)n1 (stereo not drawn) [Example 455, 3-(7-(2-(4-(1-(4-((5-bromo-4-((5-(dimethylphosphoryl)-2-ethyl-1-oxo-1,2-dihydrophthalazin-6-yl)amino)pyrimidin-2-yl)amino)-5-ethoxy-2-ethylphenyl)piperidin-4-y)piperazin-1-yl)ethyl)-2-oxobenzo[d]oxazol-3(2H)-yl)piperidine-2,6-dione] | 0.47 | 79.19 | 77.73 | 2.31 | 77.76 | 121 | 3.83 | 87.13 | – | –
CCOc1cc(N2CCC(N3CCN(CCc4cc(F)cc5c4n(C)c(=O)n5C4CCC(=O)NC4=O)CC3)CC2)c(CC)cc1Nc1ncc(Br)c(Nc2ccc3nc(CC)ccc3c2P(C)(C)=O)n1 (stereo not drawn) [Example 462, 3-(4-(2-(4-(1-(4-((5-bromo-4-((5-(dimethylphosphoryl)-2-ethylquinolin-6-yl)amino)pyrimidin-2-yl)amino)-5-ethoxy-2-ethylphenyl)piperidin-4-yl)piperazin-1-yl)ethyl)-6-fluoro-3-methyl-2-oxo-2,3-dihydro-1H-benzo[d]imidazol-1-yl)piperidine-2,6-dione] | 1.12 | 78.37 | 77.67 | 3.19 | – | 67.7 | 19.2 | – | – | –
CCc1cc(Nc2ncc(Br)c(Nc3ccc4nc(C)ccc4c3P(C)(C)=O)n2)c(OC)cc1N1CCC(N2CCN(CCc3cccc4c3oc(=O)n4C3CCC(=O)NC3=O)CC2)CC1 (stereo not drawn) [Example 506, 3-(7-(2-(4-(1-(4-((5-bromo-4-((5-(dimethylphosphoryl)-2-methylquinolin-6-yl)amino)pyrimidin-2-yl)amino)-2-ethyl-5-methoxyphenyl)piperidin-4-yl)piperazin-1-yl)ethyl)-2-oxobenzo[d]oxazol-3(2H)-yl)piperidine-2,6-dione] | 0.96 | 84.41 | 80.87 | 2.04 | – | 22.5 | 6.1 | – | 91.7 | 93
CCOc1cc(N2CCC(N3CCN(CCc4cc(F)c(F)c5c4oc(=O)n5C4CCC(=O)NC4=O)CC3)CC2)c(CC)cc1Nc1ncc(Br)c(Nc2ccc3nc(CC)ccc3c2P(C)(C)=O)n1 (stereo not drawn) [Example 474, 3-(7-(2-(4-(1-(4-((5-bromo-4-((5-(dimethylphosphoryl)-2-ethylquinolin-6-yl)amino)pyrimidin-2-yl)amino)-5-ethoxy-2-ethylphenyl)piperidin-4-yl)piperazin-1-yl)ethyl)-4,5-difluoro-2-oxobenzo[d]oxazol-3(2H)-yl)piperidine-2,6-dione] | 1.15 | 73.43 | 68.97 | 2.65 | – | 30.4 | 12 | – | 81.1 | 79.2
CCOc1cc(N2CCC(N3CCN(CCc4ccc(C)c5c4oc(=O)n5C4CCC(=O)NC4=O)CC3)CC2)c(CC)cc1Nc1ncc(Br)c(Nc2ccc3nc(CC)ccc3c2P(C)(C)=O)n1 (stereo not drawn) [Example 470, 3-(7-(2-(4-(1-(4-((5-bromo-4-((5-(dimethylphosphoryl)-2-ethylquinolin-6-yl)amino)pyrimidin-2-yl)amino)-5-ethoxy-2-ethylphenyl)piperidin-4-yl)piperazin-1-yl)ethyl)-4-methyl-2-oxobenzo[d]oxazol-3(2H)-yl)piperidine-2,6-dione] | > 10000 | 39.87 | 64.89 | 9540 | – | 300 | 418 | – | 86.6 | 80.5
CCOc1cc(N2CCC(N3CCN(CCc4cccc5c4n(CC)c(=O)n5C4CCC(=O)NC4=O)CC3)CC2)c(CC)cc1Nc1ncc(Br)c(Nc2cc(F)c3nc(CC)ccc3c2P(C)(C)=O)n1 (stereo not drawn) [Example 643, 3-(4-(2-(4-(1-(4-((5-bromo-4-((5-(dimethylphosphoryl)-2-ethyl-8-fluoroquinolin-6-yl)amino)pyrimidin-2-yl)amino)-5-ethoxy-2-ethylphenyl)piperidin-4-yl)piperazin-1-yl)ethyl)-3-ethyl-2-oxo-2,3-dihydro-1H-benzo[d]imidazol-1-yl)piperidine-2,6-dione] | 2.48 | 65.15 | 73.67 | 1.45 | – | 3.97 | 3.86 | – | – | –
CCOc1cc(N2CCC(N3CCN(CCc4ccc(F)c5c4oc(=O)n5C4CCC(=O)NC4=O)CC3)CC2)c(CC)cc1Nc1ncc(Br)c(Nc2ccc3nc(CC)ccc3c2P(C)(C)=O)n1 (stereo not drawn) [Example 505, 3-(7-(2-(4-(1-(4-((5-bromo-4-((5-(dimethylphosphoryl)-2-ethylquinolin-6-yl)amino)pyrimidin-2-yl)amino)-5-ethoxy-2-ethylphenyl)piperidin-4-yl)piperazin-1-yl)ethyl)-4-fluoro-2-oxobenzo[d]oxazol-3(2H)-yl)piperidine-2,6-dione] | 0.925 | 77.6 | 68.68 | 3.17 | – | 8.88 | 9.43 | – | – | –
CCOc1cc(N2CCC(N3CCN(CCc4cc5oc(=O)n(C6CCC(=O)NC6=O)c5cc4C)CC3)CC2)c(CC)cc1Nc1ncc(Br)c(Nc2ccc3nc(CC)ccc3c2P(C)(C)=O)n1 (stereo not drawn) [Example 465, 3-(6-(2-(4-(1-(4-((5-bromo-4-((5-(dimethylphosphoryl)-2-ethylquinolin-6-yl)amino)pyrimidin-2-yl)amino)-5-ethoxy-2-ethylphenyl)piperidin-4-yl)piperazin-1-yl)ethyl)-5-methyl-2-oxobenzo[d]oxazol-3(2H)-yl)piperidine-2,6-dione] | 1.92 | 70.68 | 48.97 | > 16 | – | 1.94 | 2.46 | – | 92.7 | 84.5
CCc1cc(Nc2ncc(Br)c(Nc3ccc4nc(C)ccc4c3P(C)(C)=O)n2)c(OC)cc1N1CCC(N2CCN(C(=O)[C@H]3CN(c4cc(F)c([C@H]5CCC(=O)NC5=O)c(F)c4)CC3(C)C)CC2)CC1 [Example 487, (R)-3-(4-((R)-4-(4-(1-(4-((5-bromo-4-((5-(dimethylphosphoryl)-2-methylquinolin-6-yl)amino)pyrimidin-2-yl)amino)-2-ethyl-5-methoxyphenyl)piperidin-4-yl)piperazine-1-carbonyl)-3,3-dimethylpyrrolidin-1-yl)-2,6-difluorophenyl)piperidine-2,6-dione] | 2.22 | 85.45 | 74.41 | 4.02 | – | 10.1 | 5.25 | – | – | –
CCc1ccc2c(P(C)(C)=O)c(Nc3nc(Nc4cc(CC)c(N5CCC(N6CCN(CCc7ccc8c(oc(=O)n8C8CCC(=O)NC8=O)c7F)CC6)CC5)cc4OC)ncc3Br)ccc2n1 (stereo not drawn) [Example 458, 3-(6-(2-(4-(1-(4-((5-bromo-4-((5-(dimethylphosphoryl)-2-ethylquinolin-6-yl)amino)pyrimidin-2-yl)amino)-2-ethyl-5-methoxyphenyl)piperidin-4-yl)piperazin-1-yl)ethyl)-7-fluoro-2-oxobenzo[d]oxazol-3(2H)-yl)piperidine-2,6-dione] | 0.505 | 83.62 | 59.65 | 3.26 | – | 3.29 | 2.09 | – | 91.5 | 88.3
CCOc1cc(N2CCC(N3CCN(CCc4cc(F)c([C@H]5CCC(=O)NC5=O)c(F)c4)CC3)CC2)c(CC)cc1Nc1ncc(Br)c(Nc2cc(F)c3nc(CC)ccc3c2P(C)(C)=O)n1 [Example 486, (R)-3-(4-(2-(4-(1-(4-((5-bromo-4-((5-(dimethylphosphoryl)-2-ethyl-8-fluoroquinolin-6-yl)amino)pyrimidin-2-yl)amino)-5-ethoxy-2-ethylphenyl)piperidin-4-yl)piperazin-1-yl)ethyl)-2,6-difluorophenyl)piperidine-2,6-dione] | 0.802 | 85.73 | 80.02 | 4.73 | – | 16.6 | 5.83 | – | – | –
